Measurements published in patent US10717749B2, “Macrocyclic sulfondiimine compounds” (BAYER PHARMA AKTIENGESELLSCHAFT, priority 2015, dated 2020).
In brackets after ≈: the same amount, converted by molar mass.

Assay: Thermodynamic solubility in water from powder (Method 4b)
Format: physicochemical
Conditions: phosphate buffer, aqueous buffer, thermodynamic from solid; pH 6.5, Method 4b
Procedure: 4b) Thermodynamic Solubility in Water from Powder
The thermodynamic solubility of compounds in water was determined by an equilibrium shake flask method (see for example: E. H. Kerns, L. Di: Drug-like Properties: Concepts, Structure Design and Methods, 276-286, Burlington, Mass., Academic Press, 2008). A saturated solution of the drug was prepared and the solution was mixed for 24 h to ensure that equilibrium was reached. The solution was centrifuged to remove the insoluble fraction and the concentration of the compound in solution was determined using a standard calibration curve. To prepare the sample, 2 mg solid compound was weighed in a 4 mL glass vial. 1 mL phosphate buffer pH 6.5 was added. The suspension was stirred for 24 hrs at room temperature. The solution was centrifuged afterwards. To prepare the sample for the standard calibration, 2 mg solid sample was dissolved in 30 mL acetonitrile. After sonification the solution was diluted with water to 50 mL. Sample and standards were quantified by HPLC with UV-detection. For each sample two injection volumes (5 and 50 μl) in triplicates were made. Three injection volumes (5 μl, 10 μl and 20 μl) were made for the standard. […]
The areas of sample- and standard injections as well as the calculation of the solubility value (in mg/l) were determined by using HPLC software (Waters Empower 2 FR).

solubility thermodynamic at 24 h: 58 µg/mL (≈ 126 µM)
SMILES: CS(=N)(=N)Cc1cc2cc(c1)OCCCCOc1cc(F)ccc1-c1nc(ncc1F)N2 [Example 5, 16,20-difluoro-9-[(S-methylsulfonodiimidoyl)methyl]-2,3,4,5-tetrahydro-12H-13,17-(azeno)-11,7-(metheno)-1,6,12,14-benzodioxadiazacyclononadecine]
